Laboratory results as given in ChEMBL document CHEMBL1147400, “Novel antimitotic dibenzocyclo-octadiene lignan constituents of the stem bark of Steganotaenia araliacea” (1993).
Values after ≈ are worked out from the molar mass of the structure shown.

Experiments:
LNCaP = experiment: Cytotoxicity against human LNCAP cells; format: functional; conditions: read-out: ED50 (the source's name)
Lu1 = experiment: Cytotoxicity against human Lu1 cells; format: functional; conditions: read-out: ED50 (the source's name)
[1] = Cytotoxicity against multidrug-resistant human KBV1 cells; format: functional; conditions: KB-V1, read-out: ED50 (the source's name)
KB = experiment: Cytotoxicity against human KB cells; format: functional; conditions: read-out: ED50 (the source's name)
HT = experiment: Cytotoxicity against human HT cells; format: functional; conditions: read-out: ED50 (the source's name)
[2] = Cytotoxicity against human BC1 cells; format: functional; conditions: read-out: ED50 (the source's name)
A-431 = experiment: Cytotoxicity against human A431 cells; format: functional; conditions: read-out: ED50 (the source's name)
Bos taurus [3] = species on record: Bos taurus; experiment: Inhibition of calf thymus tubulin polymerization by turbidimetric analysis
[4] = Antimitotic activity against rat ASK cells assessed as reversal of astrocyte morphology at 0.8 ug/ml; format: functional
[5] = Antimitotic activity against rat ASK cells assessed as reversal of astrocyte morphology at 4 ug/ml; format: functional
[6] = Antimitotic activity against rat ASK cells assessed as reversal of astrocyte morphology at 20 ug/ml; format: functional
[7] = Antimitotic activity against rat ASK cells assessed as reversal of astrocyte morphology at 100 ug/ml; format: functional
Col2 = experiment: Cytotoxicity against human Col2 cells; format: functional; conditions: read-out: ED50 (the source's name)
SK-MEL-2 = experiment: Cytotoxicity against human SK-MEL-2 cells; format: functional; conditions: read-out: ED50 (the source's name)
[8] = Cytotoxicity against human U373 cells; format: functional, U-373MG ATCC; conditions: U373 MG, read-out: ED50 (the source's name)
ZR-75-1 = experiment: Cytotoxicity against human ZR-75-1 cells; format: functional; conditions: read-out: ED50 (the source's name)
[9] = Antimitotic activity against rat ASK cells assessed as reversal of astrocyte morphology at 0.032 ug/ml; format: functional
[10] = Antimitotic activity against rat ASK cells assessed as reversal of astrocyte morphology at 0.16 ug/ml; format: functional
Bos taurus [11] = species on record: Bos taurus; experiment: Inhibition of calf brain tubulin polymerization by turbidimetric analysis
[12] = Antimitotic activity against rat ASK cells assessed as reversal of astrocyte morphology at 0.0064 ug/ml; format: functional
[13] = Antimitotic activity against rat ASK cells assessed as reversal of astrocyte morphology at 0.00128 ug/ml; format: functional

Compound: COC[C@@H]1Cc2cc3c(cc2-c2c(ccc(OC)c2OC)C[C@@H]1C(=O)OC)OCO3
- EC50 (LNCaP): > 20 µg/mL
- EC50 (Lu1): > 20 µg/mL
- EC50 [1]: > 20 µg/mL
- EC50 (KB): > 20 µg/mL
- EC50 (HT): > 20 µg/mL
- EC50 [2]: > 20 µg/mL
- EC50 (A-431): > 20 µg/mL
- ED50 (Bos taurus [3]): 76.9 µg/mL (≈ 186 µM)
- Activity [4]: 0%
- Activity [5]: 0%
- Activity [6]: 0%
- Activity [7]: 40%
- EC50 (Col2): > 20 µg/mL
- EC50 (SK-MEL-2): > 20 µg/mL
- EC50 [8]: > 20 µg/mL
- EC50 (ZR-75-1): > 20 µg/mL

Compound: COc1cc2c(c(OC)c1OC)-c1cc3c(cc1[C@@H](OC(C)=O)C1COC(=O)[C@H]1C2)OCO3 (stereo not given in full) [STEGANACIN]
- EC50 (Lu1): 0.4 µg/mL (≈ 0.876 µM)
- EC50 [1]: 0.2 µg/mL (≈ 0.438 µM)
- EC50 (KB): 0.1 µg/mL (≈ 0.219 µM)
- EC50 (HT): 0.7 µg/mL (≈ 1.53 µM)
- EC50 [2]: 0.6 µg/mL (≈ 1.31 µM)
- EC50 (A-431): 0.2 µg/mL (≈ 0.438 µM)
- Activity (Bos taurus [3]): Dose-dependent effect
- Activity [9]: 0%
- Activity [10]: 100%
- Activity [4]: 100%
- Activity [5]: 100%
- Activity [6]: 100%
- Activity [7]: 100%
- EC50 (Col2): 0.4 µg/mL (≈ 0.876 µM)
- EC50 (SK-MEL-2): > 20 µg/mL
- EC50 [8]: 0.1 µg/mL (≈ 0.219 µM)
- EC50 (ZR-75-1): 5 µg/mL (≈ 11 µM)
- ED50 (Bos taurus [11]): 1.7 µg/mL (≈ 3.72 µM)

Compound: C/C=C(/C)C(=O)O[C@@H]1c2cc3c(cc2-c2c(cc(OC)c(OC)c2OC)C[C@H]2C(=O)OC[C@H]12)OCO3 [EPISTEGANANGIN]
- EC50 (LNCaP): > 20 µg/mL
- EC50 (Lu1): 6.9 µg/mL (≈ 13.9 µM)
- EC50 [1]: 0.9 µg/mL (≈ 1.81 µM)
- EC50 (KB): 7.4 µg/mL (≈ 14.9 µM)
- EC50 (HT): 7.4 µg/mL (≈ 14.9 µM)
- EC50 [2]: 1.1 µg/mL (≈ 2.22 µM)
- EC50 (A-431): > 20 µg/mL
- Activity [4]: 0%
- Activity [5]: 0%
- Activity [6]: 0%
- Activity [7]: 100%
- EC50 (Col2): > 20 µg/mL
- EC50 (SK-MEL-2): 20 µg/mL (≈ 40.3 µM)
- EC50 [8]: > 20 µg/mL
- EC50 (ZR-75-1): 13.9 µg/mL (≈ 28 µM)
- ED50 (Bos taurus [11]): 78.1 µg/mL (≈ 157 µM)

Compound: COc1cc2c(c(OC)c1OC)-c1cc3c(cc1C(=O)[C@H]1COC(=O)[C@@H]1C2)OCO3
- EC50 (LNCaP): 2 µg/mL (≈ 4.85 µM)
- EC50 (Lu1): 1 µg/mL (≈ 2.42 µM)
- EC50 [1]: 7.1 µg/mL (≈ 17.2 µM)
- EC50 (KB): 1.5 µg/mL (≈ 3.64 µM)
- EC50 (HT): 0.7 µg/mL (≈ 1.7 µM)
- EC50 [2]: 1.8 µg/mL (≈ 4.36 µM)
- EC50 (A-431): > 20 µg/mL
- Activity [9]: 0%
- Activity [10]: 0%
- Activity [4]: 100%
- Activity [5]: 100%
- Activity [6]: 100%
- Activity [7]: 100%
- EC50 (Col2): 2.1 µg/mL (≈ 5.09 µM)
- Activity [12]: 0%
- EC50 (SK-MEL-2): > 20 µg/mL
- EC50 [8]: > 20 µg/mL
- EC50 (ZR-75-1): > 20 µg/mL
- ED50 (Bos taurus [11]): 68.2 µg/mL (≈ 165 µM)

Compound: COc1cc2c(c(OC)c1OC)-c1ccc(OC)c(=O)cc1[C@@H](NC(C)=O)CC2 [COLCHICINE]
- EC50 (LNCaP): 0.06 µg/mL (≈ 0.15 µM)
- EC50 (Lu1): 0.02 µg/mL (≈ 0.0501 µM)
- EC50 [1]: 3.5 µg/mL (≈ 8.76 µM)
- EC50 (KB): 0.02 µg/mL (≈ 0.0501 µM)
- EC50 (HT): 0.004 µg/mL (≈ 0.01 µM)
- EC50 [2]: 0.008 µg/mL (≈ 0.02 µM)
- EC50 (A-431): 0.002 µg/mL (≈ 0.00501 µM)
- Activity [13]: 0%
- Activity [9]: 0%
- Activity [10]: 0%
- Activity [4]: 70%
- Activity [5]: 100%
- Activity [6]: 100%
- Activity [7]: 100%
- EC50 (Col2): 0.001 µg/mL (≈ 0.0025 µM)
- Activity [12]: 0%
- EC50 (SK-MEL-2): 0.007 µg/mL (≈ 0.0175 µM)
- EC50 [8]: 0.005 µg/mL (≈ 0.0125 µM)
- EC50 (ZR-75-1): 0.1 µg/mL (≈ 0.25 µM)
- ED50 (Bos taurus [11]): 7.4 µg/mL (≈ 18.5 µM)

Compound: C/C=C(/C)C(=O)O[C@H]1c2cc3c(cc2-c2c(cc(OC)c(OC)c2OC)C[C@H]2C(=O)OC[C@@H]21)OCO3 [STEGANANGIN]
- EC50 (LNCaP): 0.9 µg/mL (≈ 1.81 µM)
- EC50 (Lu1): 0.4 µg/mL (≈ 0.806 µM)
- EC50 [1]: 0.7 µg/mL (≈ 1.41 µM)
- EC50 (KB): 0.4 µg/mL (≈ 0.806 µM)
- EC50 (HT): 0.6 µg/mL (≈ 1.21 µM)
- EC50 [2]: 0.7 µg/mL (≈ 1.41 µM)
- EC50 (A-431): > 20 µg/mL
- Activity [9]: 0%
- Activity [10]: 50%
- Activity [4]: 100%
- Activity [5]: 100%
- Activity [6]: 100%
- Activity [7]: 100%
- EC50 (Col2): 0.6 µg/mL (≈ 1.21 µM)
- Activity [12]: 0%
- EC50 (SK-MEL-2): 0.7 µg/mL (≈ 1.41 µM)
- EC50 [8]: > 20 µg/mL
- EC50 (ZR-75-1): 1 µg/mL (≈ 2.01 µM)
- ED50 (Bos taurus [11]): 38.1 µg/mL (≈ 76.7 µM)

Compound: COC[C@@H]1Cc2cc3c(cc2-c2c(c(OC)cc(OC)c2OC)C[C@H]1C(=O)OC)OCO3
- EC50 (LNCaP): > 20 µg/mL
- EC50 (Lu1): 5.5 µg/mL (≈ 12.4 µM)
- EC50 [1]: 0.8 µg/mL (≈ 1.8 µM)
- EC50 (KB): 9.2 µg/mL (≈ 20.7 µM)
- EC50 (HT): 11.5 µg/mL (≈ 25.9 µM)
- EC50 [2]: 17.3 µg/mL (≈ 38.9 µM)
- EC50 (A-431): 6.7 µg/mL (≈ 15.1 µM)
- ED50 (Bos taurus [3]): 59.3 µg/mL (≈ 133 µM)
- Activity [5]: 0%
- Activity [6]: 100%
- Activity [7]: 100%
- EC50 (Col2): 9.6 µg/mL (≈ 21.6 µM)
- EC50 (SK-MEL-2): 14.9 µg/mL (≈ 33.5 µM)
- EC50 [8]: 7.8 µg/mL (≈ 17.5 µM)
- EC50 (ZR-75-1): 4.7 µg/mL (≈ 10.6 µM)

Compound: COc1cc2c(c(OC)c1OC)C[C@H]1COC(=O)[C@@H]1Cc1c-2cc(OC)c(OC)c1OC [STEGANOLIDE A]
- EC50 (LNCaP): 9 µg/mL (≈ 20.2 µM)
- EC50 (Lu1): 5.5 µg/mL (≈ 12.4 µM)
- EC50 [1]: 0.8 µg/mL (≈ 1.8 µM)
- EC50 (KB): 4.9 µg/mL (≈ 11 µM)
- EC50 (HT): 6.5 µg/mL (≈ 14.6 µM)
- EC50 [2]: 8 µg/mL (≈ 18 µM)
- EC50 (A-431): 5.5 µg/mL (≈ 12.4 µM)
- Activity [9]: 0%
- Activity [10]: 0%
- Activity [4]: 0%
- Activity [5]: 0%
- Activity [6]: 100%
- Activity [7]: 100%
- EC50 (Col2): 5.1 µg/mL (≈ 11.5 µM)
- EC50 (SK-MEL-2): 9.2 µg/mL (≈ 20.7 µM)
- EC50 [8]: 3.1 µg/mL (≈ 6.97 µM)
- EC50 (ZR-75-1): 8.9 µg/mL (≈ 20 µM)
